Data from EP0146338A2, “A blood accelerator 2, 3-diphosphoglyceric acid” (SHIRATORI PHARMACEUTICAL CO. LTD., priority 1983, dated 1985).

Legend:
Toxicity (LD50), mouse = settings: in vivo
[1] = tested on: human ACD (acid chitorate dextrose) preserved blood; test: 2,3-DPG level after addition of naphthoquinone to preserved blood (Keitt's method); format: cell-based; settings: for Blood level of 2,3-DPG: One hundred PM naphthoquinone in 1 ml human ACD preserved blood, 60 min at 37°C, control 294; for Concentrations of 2,3-DPG: preserved blood, mean ± standard error, n=30
Toxicity (LD50), rat = settings: in vivo, po
[2] = tested on: fresh blood taken from a patient with an ischemic disease; test: 2,3-DPG level after addition of vitamin K3 to fresh blood of patients with an ischemic disease; format: cell-based, human; settings: 100 µM
Procedure: One hundred PM of each naphthoquinone (use 10 mM naphthoquinone dissolved in 50 % ethanol solution) was added to 1 ml of human ACD (acid chitorate dextrose) preserved blood (of which 2,3-DPG concentration had decreased to 1/20 of the normal level). After incubation for 60 min at 37°C, the reaction was stopped by addition of perchloric acid. According to Keitt's method (J. Lab. Clin. Med. 77, 470-475 (1971)), thereafter, 2,3-DPG was extracted and quantified.
One hundred µM of vitamin K3 was added in 1 ml of fresh blood taken from a patient with an ischemic disease, and the concentration of 2,3-DPG was determined in the same manner as in Example 1.

O=C1C=C(S(=O)(=O)O)c2ccccc2C1=O [1,2-Naphthoquinone-4-sulfonic acid, 1,2-naphthoquinone-4-sulfonic acid]
LD50 (Toxicity (LD50), mouse; ip): 625 mg/kg
Blood level of 2,3-DPG [1]: 3923 n moles/ml RBC

O=C1C=CC(=O)c2ccccc21 [1,4-Naphthoquinone, 1,4-naphthoquinone]
LD50 (Toxicity (LD50), rat): 190 mg/kg
Blood level of 2,3-DPG [1]: 3554 n moles/ml RBC

O=C1C(Cl)=C(Cl)C(=O)c2ccccc21 [2,3-Dichloro-1,4-naphthoquinone, 2,3-dichloro-1,4-naphthoquinone]
Blood level of 2,3-DPG [1]: 3971 n moles/ml RBC

CC1=CC(=O)c2ccccc2C1=O [Vitamin K3, 2-methyl-l,4-naphthoqunone]
blood levels of 2,3-DPG in the patients with ischemic diseases (in words) ([2]; normal subjects 4931± 53): recovered to the normal level or higher levels
Concentrations of 2,3-DPG ([2]; Buerger's Disease, n=12, no addition 4253±287): 5490±117(12) n moles/ml RBC
Concentrations of 2,3-DPG ([2]; Closed arteriosclerosis, n=15, no addition 4796±365): 5624±266(15) n moles/ml RBC
LD50 (Toxicity (LD50), mouse; po): 500 mg/kg
Blood level of 2,3-DPG [1]: 3660 n moles/ml RBC
Concentrations of 2,3-DPG ([1]; dose 10 µM, dose 0: 227 ± 15): 1124 ± 107 (30) n moles/ml RBC
Concentrations of 2,3-DPG ([1]; dose 100 µM): 3256 ± 244 (30) n moles/ml RBC
Concentrations of 2,3-DPG ([1]; dose 1000 µM): 5144 ± 253 (30) n moles/ml RBC
Concentrations of 2,3-DPG ([1]; dose 10000 µM): 5569 ± 311 (30) n moles/ml RBC
